US20250345307A1, “SYNTHETIC […] BROAD-SPECTRUM ANTIVIRAL ACTIVITIES AND USES THEREOF” (priority 2020, published 2025)
“Also recorded” adds a separate entry of the source. Where two headings read alike, the source gives them in different places.

Key:
[1] = tested on: LASV; experiment: microbe, parasite or virus in culture; type: cell-based, Lassa mammarenavirus; settings: for EC50: Mammarenavirus lassaense, Hepatocyte, in Mus musculus
[2] = tested on: HCoV-229E; type: cell-based, human coronavirus 229E
[3] = tested on: HCoV-229E; type: cell-based, human coronavirus 229E; remark: listed apart in the source
[4] = tested on: SARS-CoV-2; type: cell-based, severe acute respiratory syndrome coronavirus 2
[5] = tested on: SARS-CoV-2; type: cell-based, severe acute respiratory syndrome coronavirus 2; remark: listed apart in the source
[6] = tested on: MRC-5 cells
[7] = tested on: persistently HEV-infected A549 cells; settings: 2 nM, 72 h
[8] = tested on: HCoV-229E; experiment: microbe, parasite or virus in culture; type: cell-based, human coronavirus 229E
[9] = tested on: MERS-CoV; experiment: microbe, parasite or virus in culture; type: cell-based, Middle East respiratory syndrome coronavirus
[10] = tested on: CCHFV; experiment: microbe, parasite or virus in culture; type: cell-based, Crimean-Congo hemorrhagic fever virus; settings: for EC50: Orthonairovirus haemorrhagiae, Hepatocyte, in Mus musculus
[11] = tested on: ZIKV; experiment: Antiviral activity against ZIKV (strain 976 Uganda) in A549 cells, intracellular ZIKV genomes by qRT-PCR; type: cell-based; settings: Zika virus
[12] = tested on: HCoV-229E; type: cell-based, human coronavirus 229E; remark: listed apart in the source
[13] = tested on: HCoV-229E; experiment: Immunofluorescence of nsp8 and dsRNA in HCoV-229E-infected MRC-5 cells; type: cell-based, human coronavirus 229E; settings: MRC-5, MOI 1, 24 hpi
[14] = tested on: HEV; type: cell-based, hepatitis E virus
[15] = tested on: eIF4A-dependent translation; experiment: cells; type: cell-based; settings: for inhibition at 0.01 µM: read-out: inhibition of translation of the (AG)15 construct
[16] = tested on: SARS-CoV-2; experiment: microbe, parasite or virus in culture; type: cell-based, severe acute respiratory syndrome coronavirus 2
[17] = tested on: SARS-CoV-2; experiment: Immunofluorescence of viral dsRNA in SARS-CoV-2-infected Vero E6 cells; type: cell-based, severe acute respiratory syndrome coronavirus 2; settings: Vero E6, MOI 1, 24 h p.i.
[18] = tested on: NHBE cells; experiment: Cytotoxicity in differentiated NHBE cells by light microscopy; type: cell-based, human; settings: 100 nM
[19] = tested on: murine hepatocytes; settings: for CC50: mouse
[20] = tested on: HCoV-229E; settings: Müller et al. [2020]; read-out: EC50 reported previously for HCoV-229E; cited from earlier work
[21] = tested on: MERS-CoV; settings: read-out: EC50 reported previously for MERS-CoV; cited from earlier work
[22] = tested on: Vero E6 cells
[23] = tested on: A549 cells; settings: human
[24] = tested on: tumor growth; settings: xenograft mouse model; cited from earlier work
[25] = mice, cited from earlier work
[26] = Middle East respiratory syndrome-related coronavirus, MRC5

## CONC(=O)[C@@H]1[C@H](O)[C@]2(O)c3c(OC)cc(OC)cc3O[C@]2(c2ccc(OC)cc2)[C@H]1c1ccccc1 [CR-31-B (+)]
[1]
  antiviral activity against LASV and CCHFV (in words): no antiviral effects
[2]
  Coronavirus N-protein levels: no detectable effect
[3]
  infectious virus production: did not significantly reduce viral replication
[4]
  Viral nucleocapsid (N) protein levels: not affected
[5]
  SARS-CoV-2 replication / titers: did not affect viral replication
[6]
  cytotoxicity (in words): no major cytotoxicity
[7]
  reduction of cell viability: no major cytotoxic effects

## CONC(=O)[C@H]1[C@@H](O)[C@@]2(O)c3c(OC)cc(OC)cc3O[C@@]2(c2ccc(OC)cc2)[C@@H]1c1ccccc1 [CR-31-B (−)]
[8]
  EC50: 2.88 nM
[8]; Human coronavirus 229E, MRC5
  EC50: 3.49 nM
[9]
  EC50: 1.87 nM
  MERS-CoV titer reduction: about 5 log phases
[9]; [26]
  EC50: 2.09 nM
[1]
  antiviral activity against LASV and CCHFV (in words): potent antiviral activity
  virus titer drop, LASV-infected cells: approximately 4 log
  EC50: 36.1 nM
[1]; read-out: EC50 values
  EC50: 20 to 50 nM
[10]
  virus titer drop, CCHFV-infected cells: ~3 log
  EC50: 20 nM
[11]; A549 cells, MOI 0.1, ZIKV genomes by qRT-PCR, 24 hpi, read-out: EC50
  EC50: 1.13 nM
[2]
  Coronavirus N-protein levels: strongly reduced
[12]
  genomic and subgenomic RNA levels of HCoV-229E: reduced
[13]
  formation of viral replication/transcription complexes: reduced
[3]
  infectious virus production: undetectable levels
  reduction of virus titer in the supernatant: about 1.5 orders of magnitude
[14]
  antiviral effect on extracellular HEV RNA levels: slightly weaker; also recorded: some antiviral activity
[15]
  induction of luciferase activity: 1.5 fold
  reporter activity, VP35-HP only: about twofold
  reporter activity, VP35-HP+(AG)5: reduced back to basic levels
  sensitivity of translation, EBOV VP35 5′-UTR: insensitive
  sensitivity to eIF4A-dependent translation inhibition, 5′-UTRs of SARS-CoV-2, HCoV-229E and MERS-CoV: similarly sensitive
  sensitivity to translation inhibition, 5′-UTRs of HCoV-229E, MERS-CoV and EBOV VP30: similarly sensitive
  sensitivity, HEVgt3c-Purine 5′-UTR: became sensitive
  inhibition at 0.01 µM: ~80%
[16]
  selectivity index (CC50/EC50): > 50
[16]; Severe acute respiratory syndrome coronavirus 2, Vero C1008, 24 h
  EC50: ~1.8 nM
[4]
  Viral nucleocapsid (N) protein levels: drastically reduced; also recorded: moderately reduced
[17]
  replicative organelles active in viral RNA synthesis (dsRNA): profound reduction
[5]
  SARS-CoV-2 replication / titers: undetectable levels
  reduction of SARS-CoV-2 titers: about 4 logs
  reduction of production of infectious virus progeny: approximately 1.5 log steps
[18]
  cytotoxicity by light microscopy: No obvious cytotoxicity
[6]
  cytotoxicity (in words): no major cytotoxicity
[6]; human
  CC50: > 5000 nM
  reduction of cell viability: 10-25%
[19]
  cytotoxicity (in words): no detectable cytotoxicity
  CC50: > 5000 nM
[20]
  EC50: 2.88 nM
[21]
  EC50: 1.87 nM
[7]
  reduction of cell viability: no major cytotoxic effects
[22]
  cytotoxicity (in words): No major cytotoxicity
[22]; African green monkey
  cell viability reduced by: 10-25%

## COC(=O)[C@H]1[C@@H](O)[C@@]2(O)c3c(OC)cc(O[C@@H]4O[C@@H]([C@H](O)CO)CO[C@H]4OC)cc3O[C@@]2(c2ccc(OC)cc2)[C@@H]1c1ccccc1 [Silvestrol, methyl(1R,2R,3S,3aR,8bS)-6-[[(2S,3R,6R)-6-[(1R)-1,2-dihydroxyethyl]-3-methoxy-1,4-dioxan-2-yl]oxy]-1,8b-dihydroxy-8-methoxy-3a-(4-methoxyphenyl)-3-phenyl-2,3-dihydro-1H-cyclopenta[b][1]benzofuran-2-carboxylate, reference compound]
[8]; Human coronavirus 229E, MRC5
  EC50: 3 nM
[9]; [26]
  EC50: 1.3 nM
[1]
  antiviral activity against LASV and CCHFV (in words): potent antiviral activity
  virus titer drop, LASV-infected cells: approximately 4 log
  EC50: 50.7 nM
[1]; read-out: EC50 values
  EC50: 20 to 50 nM
[10]
  virus titer drop, CCHFV-infected cells: ~3 log
  EC50: 28.5 nM
[11]; A549
  EC50: 1.08 nM
[3]
  infectious virus production: undetectable levels
  reduction of virus titer in the supernatant: similar
[14]
  antiviral effect on extracellular HEV RNA levels: antiviral activity
[15]
  induction of luciferase activity: 1.5 fold
  inhibitory effect, destabilized HEV 5′-UTR hairpin: gradual loss of the inhibitory effect
  luciferase activity, HEVgt3c 5′-UTR: reduced luciferase activity
  reporter activity, VP35-HP only: sufficient to mediate translation inhibition
  reporter activity, VP35-HP+(AG)5: slightly increased translation inhibition
  sensitivity of translation, EBOV VP35 5′-UTR: sensitive
  sensitivity to translation inhibition, 5′-UTRs of HCoV-229E, MERS-CoV and EBOV VP30: similarly sensitive
  sensitivity, HEVgt3c-Purine 5′-UTR: became sensitive
  inhibition at 0.01 µM: ~55%
[5]
  SARS-CoV-2 replication / titers: completely abolished
[6]; human
  CC50: > 10000 nM
[19]
  cytotoxicity (in words): no detectable cytotoxicity
  CC50: > 5000 nM
[23]
  CC50: 9.42 nM
[24]
  tumor growth: reduced tumor growth efficiently

## CR-31-B
[6]
  cytotoxic effects (in words): no major cytotoxic effects
[7]
  reduction of cell viability: not cytotoxic
[24]
  tumor growth: reduced tumor growth efficiently
[25]; two weeks after cessation of treatment
  serum levels of aminotransferases (ALT and AST), albumin, total bilirubin, creatinine: not significantly changed
[25]
  body weight, number of blood cells: did not change
  toxicity in the gastrointestinal tract: no toxicity could be observed
